In patent US20230045151A1, “COMPOSITIONS AND METHODS” (MONASH UNIVERSITY, priority 2020, published 2023):

What was measured:
lung DCs = assay: In vivo tracking of DCs after intranasal fluorescently labelled HDM; design: species or system mouse; conditions: L-tyrosine-treated mice, intranasal HDM-AF647
Description: Mediastinal lymph nodes were filtered through a 40 μm cell strainer, washed with PBS supplemented with 1% fetal bovine serum and 2 mM EDTA (Invitrogen) (MACS buffer). Lungs were finely cut with scissors, digested with Collagenase IV (Gibco™) in Iscove's modified Dulbecco's medium (IMDM, Gibco™) for 50 min at 37° C. and processed as the lymph nodes. Cell counts were determined with Coulter Counter and […] were stained with freshly prepared antibody mix in MACS buffer for 20 minutes at 4° C. in a 96-well round-bottom plates (Costar). Dendritic cells were identified using monoclonal antibodies against CD11c-phycoerythrin (PE)/Cy7 (Biolegend, cat nr 117318; diluted 1:400 in MACS buffer), SiglecF-Alexa Fluor (AF) 647 (BD Biosciences™, 562680; 1:400) and MHC-II-AF700 (Biolegend, 107622, 1:800). DC activation was assessed using antibodies against PD-L2-PE (Biolegend, 107205; 1:200), CD80− Brilliant Violet (BV)-605 (Biolegend, 104729; 1:200) and CD86-BV650 (Biolegend, 105035; 1:200). T helper cells were identified using antibodies against CD3c-Pacific Blue (PB) (Biolegend, 100214; 1:800) and CD4− PerCP-Cy5.5 (Biolegend, 100434; 1:800). Activated T helper cells were identified using anti-CD44-PE antibody (BD Biosciences™, 553134, 1: 400) A regulatory subset of T helper cells (Tregs) was identified with the addition of anti-CD25-AF700 (Biolegend, 102024; 1:200) and anti-Foxp3-AF647 (Biolegend, 126408; 1:200) antibodies. For the latter, an intracellular staining was performed, where cells were incubated with anti-Foxp3 antibody diluted in 0.5% saponin from Quillaja bark (Sigma-Aldrich) for 40 minutes at 4° C. B cells were identified with anti-CD19-PE/Cy7 (eBioscience, 25-0193; 1:200) and anti-B220-FITC (Biolegend, 103206; 1:200). When indicated, HEL and HDM were labelled with Alexa Fluor 647 antibody labelling kit (Invitrogen™) and separated from the unlabelled dye with the use of PD-10 desalting columns (GE Healthcare). […] Samples were analyzed with FlowJo 10.4.2 software (Tree Star Inc., Ashland, Oreg.). […]

pulmonary DCs = assay: DC:T cell co-culture (priming of naive OT-II cells / restimulation of effector Th cells); assay type: cell-based, mouse; conditions: pulmonary DCs from L-tyrosine-treated mice
Excerpt: Data from a-c are pooled from two experiments (a, b, n=10 biologically independent samples per group; c, n=9 biologically independent samples per group). Data in d represent technical replicates (n=6 left panel, n=5 right panel) from one experiment. Data in e are pooled from 3 independent experiments (n=6 per group). Data in f are pooled from two independent experiments (n=5 biologically independent samples per group). Data in g are pooled from two independent experiments (n=9 biologically independent samples per group). Data in h are pooled from two independent experiments (n=4 biologically independent samples per group). All data are presented as mean values±s.e.m. Statistical significance for a-d, f, g, was evaluated with unpaired Student's t-test (in the case of Gaussian distribution) or Mann-Whitney test (non-Gaussian distribution). Statistical significance for e, h was determined with One-Way analysis of variance (ANOVA) with Dunnett correction for multiple comparisons. Data distribution was assessed with D'Agostino & Pearson normality test. *p≤0.05, **p≤0.01, ***p≤0.001, ****p≤0.0001
DC: T cell co-cultures were set-up by sorting CD11c+ SiglecF− (DCs) and CD4+CD44+ T cells from the lungs of HDM-immunized mice on FACSAria III (BD Biosciences™, San Jose, Calif.). […]

N[C@@H](Cc1ccc(O)cc1)C(=O)O [L-tyrosine]
activation of lung DCs (surface CD80, CD86, PD-L2) (lung DCs): impairment | antigen (HDM) uptake by lung DCs (lung DCs): modest effect | migratory capacity of DCs (frequency of HDM+ DCs in the draining LNs) (lung DCs): decreased | capacity of DCs to restimulate in vivo-primed effector T helper cells into an IL-13-producing subset (pulmonary DCs): impaired | capacity of DCs to prime naive CD4+ T cells into an IL-13-producing subset (pulmonary DCs; OT-II cells): impaired
